Test results taken from patent US9650360B2, “Anti-mycobacterial drugs against tuberculosis” (priority 2012, dated 2017).

Tested on: HIV
Experiment: in vitro anti-HIV activity in cell culture
Assay type: cell-based

O=C(/C=C(\O)c1cc(Cc2c(F)cc(F)cc2F)cn(Cc2ccccc2F)c1=O)C(=O)N1CCN(c2cccc3ccccc23)CC1
EC90 (concentration for 90% inhibition of virus replication): nM range
